In one assay the target is Rhesus PDE2A3 (Macaca mulatta, UniProt B3VTJ2). The experiment in a line: PDE2 fluorescence polarization (IMAP FP) inhibition assay, rhesus enzyme. It counts as biochemical, rhesus macaque. The gist of the method: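 IMAP FP (mP from parallel and perpendicular fluorescence against substrate-only control) was read ≥1 h after adding binding reagent. The preceding 60 min room-temperature reaction contained FAM-cAMP (50 nM) and cGMP (1 uM) in pH 7.2 Tris buffer with MgCl2 and DTT. Enzyme was supernatant of sonicated AD293 cells expressing rhesus PDE2A3; compounds were 3-fold titrated, DMSO 1% final.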
(In general: Polarisation of emitted light reports the rotation of a fluorescent probe.)

A further assay has as its target human PDE2A1 (Homo sapiens (Human), UniProt O00408). The experiment in a line: IMAP FP PDE selectivity panel, human PDE2A1. It is filed as biochemical. The gist of the method: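 IMAP FP format: substrate 50 nM FAM-cAMP plus 1000 nM cGMP, enzyme (insect-cell GST-tagged human PDE2A1) at ~20% conversion, 60 min reaction at room temperature. Apparent inhibition constants calculated from parallel/perpendicular fluorescence with KM 10,000 nM.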

Setting [1] is: Rhesus PDE2, Lab B, read-out: Rhesus PDE2 Ki (nM) - Lab B.
Setting [2] is: Human PDE2, Lab B, read-out: Human PDE2 Ki (nM) - Lab B.
Where [3] appears, read: Rhesus PDE2, Lab A, read-out: Rhesus PDE2 Ki (nM) - Lab A.
The mark [4] stands for this setting: Human PDE2, Lab A, read-out: Human PDE2 Ki (nM) - Lab A.

Molecules are shown by their SMILES. Like-named read-outs stand apart in the source and are kept apart here.

The Ki is the equilibrium dissociation constant of an inhibitor or competing ligand from its target.

human PDE2A1, sequence (O00408 other isoform, or with tags, fused parts or gaps): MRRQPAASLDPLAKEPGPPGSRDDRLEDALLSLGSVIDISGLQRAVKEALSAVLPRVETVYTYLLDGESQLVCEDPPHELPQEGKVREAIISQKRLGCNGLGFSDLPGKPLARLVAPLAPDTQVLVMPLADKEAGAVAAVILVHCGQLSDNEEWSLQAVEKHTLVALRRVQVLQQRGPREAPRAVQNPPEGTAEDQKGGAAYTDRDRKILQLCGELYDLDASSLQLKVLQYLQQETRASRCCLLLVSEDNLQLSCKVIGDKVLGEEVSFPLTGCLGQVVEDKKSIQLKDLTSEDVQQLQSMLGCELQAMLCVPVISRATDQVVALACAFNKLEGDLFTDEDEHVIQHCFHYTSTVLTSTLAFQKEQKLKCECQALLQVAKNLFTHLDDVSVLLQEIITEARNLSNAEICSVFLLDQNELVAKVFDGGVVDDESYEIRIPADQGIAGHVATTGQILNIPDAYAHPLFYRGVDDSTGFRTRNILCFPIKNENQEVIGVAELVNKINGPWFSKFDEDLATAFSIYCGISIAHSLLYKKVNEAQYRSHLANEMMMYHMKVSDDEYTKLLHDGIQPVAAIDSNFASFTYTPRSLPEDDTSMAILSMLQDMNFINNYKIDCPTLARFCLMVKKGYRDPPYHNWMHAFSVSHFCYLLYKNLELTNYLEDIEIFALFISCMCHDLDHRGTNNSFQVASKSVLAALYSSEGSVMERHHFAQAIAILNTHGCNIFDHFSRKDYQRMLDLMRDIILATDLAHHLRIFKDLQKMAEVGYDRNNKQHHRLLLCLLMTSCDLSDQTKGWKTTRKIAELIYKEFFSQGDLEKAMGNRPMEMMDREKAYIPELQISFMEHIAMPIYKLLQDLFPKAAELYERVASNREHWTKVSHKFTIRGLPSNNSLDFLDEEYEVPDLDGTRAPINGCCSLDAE
Rhesus PDE2A3, sequence (B3VTJ2 1-941): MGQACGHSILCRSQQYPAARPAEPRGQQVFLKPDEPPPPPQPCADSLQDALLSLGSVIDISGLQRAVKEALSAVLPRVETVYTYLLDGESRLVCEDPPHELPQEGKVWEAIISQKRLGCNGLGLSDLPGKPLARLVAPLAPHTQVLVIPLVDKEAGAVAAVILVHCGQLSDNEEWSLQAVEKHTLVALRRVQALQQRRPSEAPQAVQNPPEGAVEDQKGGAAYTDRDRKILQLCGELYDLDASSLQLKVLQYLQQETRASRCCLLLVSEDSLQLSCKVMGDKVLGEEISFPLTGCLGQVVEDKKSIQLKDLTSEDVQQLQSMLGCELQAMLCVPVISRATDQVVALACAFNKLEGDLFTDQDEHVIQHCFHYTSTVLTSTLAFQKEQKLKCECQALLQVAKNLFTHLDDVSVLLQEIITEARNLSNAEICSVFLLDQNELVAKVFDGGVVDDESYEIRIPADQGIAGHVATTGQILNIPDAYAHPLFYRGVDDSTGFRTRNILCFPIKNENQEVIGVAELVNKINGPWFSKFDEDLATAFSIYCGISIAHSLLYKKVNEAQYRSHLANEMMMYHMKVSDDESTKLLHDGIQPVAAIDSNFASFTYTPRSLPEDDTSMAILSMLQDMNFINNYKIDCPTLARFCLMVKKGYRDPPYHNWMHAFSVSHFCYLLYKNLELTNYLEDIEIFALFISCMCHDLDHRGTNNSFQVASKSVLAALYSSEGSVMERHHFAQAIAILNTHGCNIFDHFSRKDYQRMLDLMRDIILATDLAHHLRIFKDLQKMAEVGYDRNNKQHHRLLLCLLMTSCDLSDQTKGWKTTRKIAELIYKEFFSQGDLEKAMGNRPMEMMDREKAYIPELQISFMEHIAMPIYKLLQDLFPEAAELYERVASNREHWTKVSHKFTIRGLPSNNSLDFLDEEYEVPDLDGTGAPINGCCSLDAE

In the case of `CC(C)(C)[C@@H](NC(=O)c1cc(=O)[nH]c(C2CC2)n1)c1ccc(C(F)(F)F)c(F)c1` [Example 438, 2-cyclopropyl-N-{(1R)-1-[3-fluoro-4-(trifluoromethyl)phenyl]-2,2-dimethylpropyl}-6-oxo-1,6-dihydropyrimidine-4-carboxamide], the results for the inhibitory constant (Ki) on Rhesus PDE2A3 (setting [1]) and at human PDE2A1 (setting [2]) were 1.5 nM and 1.3 nM, respectively.

Consider `Cc1nc(C(=O)NC2(c3ccc(OC(F)(F)F)cc3)CCC2)cc(=O)[nH]1` [Example 269], for which the Ki came to 158 nM on Rhesus PDE2A3 (setting [3]), 118 nM on human PDE2A1 (setting [4]) and 96 nM at human PDE2A1 (setting [2]).

For the compound `C[C@@H](NC(=O)c1cc(=O)[nH]c(-c2ccccc2)n1)c1cc(F)c(C(F)(F)F)c(F)c1` [Example 184, N-{(1R)-1-[3,5-difluoro-4-(trifluoromethyl)phenyl]ethyl}-6-oxo-2-phenyl-1,6-dihydropyrimidine-4-carboxamide], the inhibition constant Ki at Rhesus PDE2A3 (setting [3]) and on human PDE2A1 (setting [4]) was 20 nM in each case.

Turning to `COc1ccc(Cc2nc(C(=O)N[C@@H](c3ccc(OC(F)(F)F)cc3)C(C)C)cc(=O)[nH]2)cc1` [Example 475, 2-(4-methoxybenzyl)-N-{(1R)-2-methyl-1-[4-(trifluoromethoxy)phenyl]propyl}-6-oxo-1,6-dihydropyrimidine-4-carboxamide], the Ki at Rhesus PDE2A3 (setting [1]) and at human PDE2A1 (setting [2]) was 1.3 nM throughout.

For `CC1(C(NC(=O)c2cc(=O)[nH]c(-c3ncccn3)n2)c2ccc(SC(F)(F)F)c(F)c2)CC1` (single isomer, unassigned) [Example 709, (R)- or (S)-N-((3-fluoro-4-((trifluoromethyl)thio)phenyl)(1-methylcyclopropyl)methyl)-6-oxo-1,6-dihydro-[2,2′-bipyrimidine]-4-carboxamide], the results for the Ki on Rhesus PDE2A3 (setting [1]) and at human PDE2A1 (setting [2]) were 8.1 nM and 7.4 nM, respectively.

Consider `Cc1nc(C(=O)N[C@@H](c2ccc(SC(F)(F)F)cc2)C(C)C)cc(=O)[nH]1` [Example 30, 2-methyl-N-[(1R)-2-methyl-1-{4-[(trifluoromethyl)sulfanyl]phenyl}propyl]-6-oxo-1,6-dihydropyrimidine-4-carboxamide], for which the values for the Ki on Rhesus PDE2A3 (setting [3]) and at human PDE2A1 (setting [4]) were 3.2 nM and 2.2 nM, respectively.

As to `CC[C@@H](NC(=O)c1cc(=O)[nH]c(Cc2ccc(OC)cc2)n1)c1ccc(OC(F)(F)F)c(F)c1` [Example 484, N-{(1R)-1-[3-fluoro-4-(trifluoromethoxy)phenyl]propyl}-2-(4-methoxybenzyl)-6-oxo-1,6-dihydropyrimidine-4-carboxamide], the Ki worked out at 1.3 nM on Rhesus PDE2A3 (setting [1]) and 1.4 nM at human PDE2A1 (setting [2]).

On to `Cc1nc(C(=O)NC(C)c2ccc(C(C)(C)C)cc2)cc(=O)[nH]1` (single isomer, unassigned) [Example 309, (R)- or (S)-N-[1-(4-tert-butylphenyl)ethyl]-2-methyl-6-oxo-1,6-dihydropyrimidine-4-carboxamide], for which the Ki on Rhesus PDE2A3 (setting [3]) was 63 nM; at human PDE2A1 (setting [4]), 43 nM.

For the compound `Cc1nc(C(=O)N[C@@H](c2ccc(C(F)(F)F)cc2)C2(C)CC2)cc(=O)[nH]1` [Example 612, 2-methyl-N-{(R)-(1-methylcyclopropyl)[4-(trifluoromethyl)phenyl]methyl}-6-oxo-1,6-dihydropyrimidine-4-carboxamide], the Ki on Rhesus PDE2A3 (setting [1]) and on human PDE2A1 (setting [2]) was 11 nM in each case.

Consider `COc1ccc(Cc2nc(C(=O)N[C@@H](c3ccc(SC(F)(F)F)cc3)C(C)C)cc(=O)[nH]2)cc1F` [Example 511, 2-(3-fluoro-4-methoxybenzyl)-N-[(1R)-2-methyl-1-{4-[(trifluoromethyl)sulfanyl]phenyl}propyl]-6-oxo-1,6-dihydropyrimidine-4-carboxamide], for which the Ki amounted to 1.2 nM at Rhesus PDE2A3 (setting [1]) and 1.4 nM at human PDE2A1 (setting [2]).

For the compound `CC[C@@H](NC(=O)c1cc(=O)[nH]c(COC)n1)c1ccc(SC(F)(F)F)cc1` [Example 121, 2-(methoxymethyl)-6-oxo-N-[(1R)-1-{4-[(trifluoromethyl)sulfanyl]phenyl}propyl]-1,6-dihydropyrimidine-4-carboxamide], the values for the Ki at Rhesus PDE2A3 (setting [3]), on Rhesus PDE2A3 (setting [1]) and on human PDE2A1 (setting [4]) were 25 nM, 29 nM and roughly 6.2 nM, respectively.

Take `O=C(N[C@@H](c1ccc(OC(F)(F)F)cc1)C1CC1)c1cc(=O)[nH]c(-c2ncccn2)n1` [Example 92, N-{(R)-cyclopropyl[4-(trifluoromethoxy)phenyl]methyl}-6-oxo-1,6-dihydro-2,2′-bipyrimidine-4-carboxamide]: the Ki was found to be 91 nM on Rhesus PDE2A3 (setting [3]) and 21 nM on human PDE2A1 (setting [4]).

On to `CC[C@@H](NC(=O)c1cc(=O)[nH]c(C(C)(C)c2ccc(OC)cc2)n1)c1ccc(SC(F)(F)F)c(F)c1` [Example 496, N-[(1R)-1-{3-fluoro-4-[(trifluoromethyl)sulfanyl]phenyl}propyl]-2-[1-(4-methoxyphenyl)-1-methylethyl]-6-oxo-1,6-dihydropyrimidine-4-carboxamide], for which the Ki on Rhesus PDE2A3 (setting [1]) was determined as 38 nM; at human PDE2A1 (setting [2]) it was 40 nM.

For the compound `COc1ccc2cc(C(C)NC(=O)c3cc(=O)[nH]c(-c4ncccn4)n3)ccc2c1` (centres unmarked) [Example 84, N-[1-(6-methoxynaphthalen-2-yl)ethyl]-6-oxo-1,6-dihydro-2,2′-bipyrimidine-4-carboxamide], the results for the inhibition constant (Ki) at Rhesus PDE2A3 (setting [3]) and on human PDE2A1 (setting [4]) were 117 nM and 28 nM, respectively.

In the case of `COc1ccc(C(C)(C)c2nc(C(=O)N[C@@H](c3ccc(C(F)(F)F)cc3)C(C)C)cc(=O)[nH]2)cc1` [Example 493, 2-[1-(4-methoxyphenyl)-1-methylethyl]-N-{(1R)-2-methyl-1-[4-(trifluoromethyl)phenyl]propyl}-6-oxo-1,6-dihydropyrimidine-4-carboxamide], the Ki on Rhesus PDE2A3 (setting [1]) came out at 77 nM; at human PDE2A1 (setting [2]) it was 62 nM.

For `CC1([C@@H](NC(=O)c2cc(=O)[nH]c(C3CC3)n2)c2ccc(S(F)(F)(F)(F)F)cc2)CC1` [Example 454, 2-cyclopropyl-N-{(R)-(1-methylcyclopropyl)[4-(pentafluoro-λ^6-sulfanyl)phenyl]methyl}-6-oxo-1,6-dihydropyrimidine-4-carboxamide], the results for the inhibitory constant (Ki) at Rhesus PDE2A3 (setting [1]) and at human PDE2A1 (setting [2]) were 3.8 nM and 4 nM, respectively.

`CC(C)c1ccc([C@@H](C)NC(=O)c2cc(=O)[nH]c(-c3ccccc3)n2)cc1` [Example 146, N-{(1R)-1-[4-(1-methylethyl)phenyl]ethyl}-6-oxo-2-phenyl-1,6-dihydropyrimidine-4-carboxamide]: the Ki stood at 9.3 nM at Rhesus PDE2A3 (setting [3]) and 7.1 nM on human PDE2A1 (setting [4]).

For `COCc1nc(C(=O)N[C@@H](c2ccc(C(F)(F)F)c(F)c2)C2CC2)cc(=O)[nH]1` [Example 115, N-{(R)-cyclopropyl[3-fluoro-4-(trifluoromethyl)phenyl]methyl}-2-(methoxymethyl)-6-oxo-1,6-dihydropyrimidine-4-carboxamide], the inhibitory constant (Ki) on Rhesus PDE2A3 (setting [3]) came to 73 nM; on human PDE2A1 (setting [4]), 15 nM.

On to `CCc1nc(C(=O)N[C@@H](C)c2ccc(C(F)(F)F)cc2)cc(=O)[nH]1` [Example 135, 2-ethyl-6-oxo-N-{(1S)-1-[4-(trifluoromethyl)phenyl]ethyl}-1,6-dihydropyrimidine-4-carboxamide], for which the Ki on Rhesus PDE2A3 (setting [3]) was found to be 1650 nM; on human PDE2A1 (setting [4]) it was 1140 nM.

Regarding `C[C@@H](NC(=O)c1cc(=O)[nH]c(-c2ccccc2)n1)c1ccc(OC(F)(F)F)cc1F` [Example 152], the values for the inhibitory constant (Ki) at Rhesus PDE2A3 (setting [3]) and at human PDE2A1 (setting [4]) were 16 nM and 13 nM, respectively.

As to `COc1ccc(Cc2nc(C(=O)N[C@H](C)c3ccc(C(F)(F)F)cc3)cc(=O)[nH]2)cc1OC` [Example 4, 2-(3,4-dimethoxybenzyl)-6-oxo-N-{(1R)-1-[4-(trifluoromethyl)phenyl]ethyl}-1,6-dihydropyrimidine-4-carboxamide], the inhibition constant Ki was found to be 0.56 nM at Rhesus PDE2A3 (setting [3]) and 0.52 nM at human PDE2A1 (setting [4]).

Take `Cc1nc(C(=O)NC(C)(C)c2ccc(OC(F)(F)F)c(F)c2)cc(=O)[nH]1` [Example 48, N-{1-[3-fluoro-4-(trifluoromethoxy)phenyl]-1-methylethyl}-2-methyl-6-oxo-1,6-dihydropyrimidine-4-carboxamide]: the Ki on Rhesus PDE2A3 (setting [3]) stood at 235 nM; on human PDE2A1 (setting [4]) it was 127 nM; at human PDE2A1 (setting [2]) it was 80 nM.

For `COc1ccc(Cc2nc(C(=O)N[C@@H](c3ccc(S(F)(F)(F)(F)F)cc3)C(C)C)cc(=O)[nH]2)cc1F` [Example 513, 2-(3-fluoro-4-methoxybenzyl)-N-{(1R)-2-methyl-1-[4-(pentafluoro-λ^6-sulfanyl)phenyl]propyl}-6-oxo-1,6-dihydropyrimidine-4-carboxamide], the Ki amounted to 2.1 nM on Rhesus PDE2A3 (setting [1]) and 1.9 nM on human PDE2A1 (setting [2]).

In the case of `Cc1nc(C(=O)N[C@H](C)c2ccc(C(F)(F)F)c(C)c2)cc(=O)[nH]1` [Example 46, 2-methyl-N-{(1R)-1-[3-methyl-4-(trifluoromethyl)phenyl]ethyl}-6-oxo-1,6-dihydropyrimidine-4-carboxamide], the figures for the Ki on Rhesus PDE2A3 (setting [3]) and on human PDE2A1 (setting [4]) were 65 nM and 72 nM, respectively.

`C[C@@H](NC(=O)c1cc(=O)[nH]c(-c2ncccn2)n1)c1ccc(S(F)(F)(F)(F)F)cc1` [Example 111, 6-oxo-N-{(1R)-1-[4-(pentafluoro-λ^6-sulfanyl)phenyl]ethyl}-1,6-dihydro-2,2′-bipyrimidine-4-carboxamide]: the Ki at Rhesus PDE2A3 (setting [3]) stood at 3.6 nM; at Rhesus PDE2A3 (setting [1]) it was 3.9 nM; at human PDE2A1 (setting [2]), 4.7 nM.

For `O=C(N[C@@H](c1ccc(C(F)(F)F)cc1)C1CC1)c1cc(=O)[nH]c(C2CC2)n1` [Example 213, 2-cyclopropyl-N-{(R)-cyclopropyl[4-(trifluoromethyl)phenyl]methyl}-6-oxo-1,6-dihydropyrimidine-4-carboxamide], the Ki is 6.1 nM on Rhesus PDE2A3 (setting [3]) and 3.3 nM at human PDE2A1 (setting [4]).

These data come from patent US9815796B2 (Merck Sharp & Dohme Corp., priority 2013, dated 2017).
